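1) Cells in 96-well plates. 2) Compound, 48 h, 5 concentrations. 3) Linear interpolation between surrounding doses. 4) Unreached endpoint = highest concentration. At the GI50, growth is halved.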 The source made the active and inactive calls. Cut-off read from the data, not from the text of the source: active = GI50 up to about 1.1 µM and inactive = higher.
Experiments:
Experiment in all cases: NCI anticancer screen, dose series, 48 h
HCT-15 = test system: HCT-15
A549 = test system: A549
SF-295 = test system: SF-295
HCC 2998 = test system: HCC 2998
EKVX = test system: EKVX
UO-31 = test system: UO-31
SN12C = test system: SN12C
SK-MEL-5 = test system: SK-MEL-5
HOP-92 = test system: HOP-92
SK-OV-3 = test system: SK-OV-3
COLO 205 = test system: COLO 205
SNB-75 = test system: SNB-75
CCRF-CEM = test system: CCRF-CEM
KM12 = test system: KM12
HT-29 = test system: HT-29
UACC-257 = test system: UACC-257
NCI-H460 = test system: NCI-H460
LOX IMVI = test system: LOX IMVI
MCF7 = test system: MCF7
RXF 393 = test system: RXF 393

Structure (SMILES)	GI50 (HCT-15)	GI50 (A549)	GI50 (SF-295)	GI50 (HCC 2998)	GI50 (EKVX)	GI50 (UO-31)	GI50 (SN12C)	GI50 (SK-MEL-5)	GI50 (HOP-92)	GI50 (SK-OV-3)	GI50 (COLO 205)	GI50 (SNB-75)	GI50 (CCRF-CEM)	GI50 (KM12)	GI50 (HT-29)	GI50 (UACC-257)	GI50 (NCI-H460)	GI50 (LOX IMVI)	GI50 (MCF7)	GI50 (RXF 393)
CC(=O)c1c(P(=O)(OC(C)C)OC(C)C)nn(-c2ccc([N+](=O)[O-])cc2)c1C	> 100 µM	> 100 µM (inactive)	> 100 µM (inactive)	> 100 µM (inactive)	> 100 µM (inactive)	> 100 µM (inactive)	> 100 µM (inactive)	> 100 µM (inactive)	> 100 µM (inactive)	> 100 µM (inactive)	> 100 µM (inactive)	> 10 µM (inactive)	> 100 µM (inactive)	> 100 µM (inactive)	> 100 µM (inactive)	> 100 µM (inactive)	> 100 µM (inactive)	–	–	–
O=C1c2cccc3cc4ccccc4c(c23)C(=O)N1CCNCCNCCNCCN1C(=O)c2cccc3cc4ccccc4c(c23)C1=O	< 0.01 µM	< 0.01 µM (active)	< 0.01 µM (active)	< 0.0134 µM (active)	0.129 µM (active)	0.0335 µM (active)	< 0.027 µM (active)	0.0243 µM (active)	0.0111 µM (active)	–	< 0.01 µM (active)	< 0.0141 µM (active)	< 0.01 µM (active)	–	< 0.01 µM (active)	0.201 µM (active)	< 0.01 µM (active)	< 0.01 µM (active)	< 0.01 µM (active)	< 0.01 µM (active)
NC(CCP(=O)(O)CCC1C=CC=CC1)C(=O)O (centres undefined)	> 100 µM	> 100 µM (inactive)	> 100 µM (inactive)	> 100 µM (inactive)	> 100 µM (inactive)	> 100 µM (inactive)	> 100 µM (inactive)	> 100 µM (inactive)	> 100 µM (inactive)	> 100 µM (inactive)	> 100 µM (inactive)	> 100 µM (inactive)	> 100 µM (inactive)	> 100 µM (inactive)	> 100 µM (inactive)	> 100 µM (inactive)	> 100 µM (inactive)	> 100 µM (inactive)	–	> 100 µM (inactive)
Cc1cccc2nc3cccc(C(=O)NCCN(C)C)c3nc12	0.442 µM	0.383 µM (active)	0.643 µM (active)	1.04 µM (active)	0.443 µM (active)	0.239 µM (active)	0.339 µM (active)	0.54 µM (active)	0.605 µM (active)	0.574 µM (active)	0.443 µM (active)	1.08 µM (active)	0.627 µM (active)	0.641 µM (active)	0.507 µM (active)	0.491 µM (active)	0.301 µM (active)	0.36 µM (active)	–	1.03 µM (active)
Cc1sc2nc3n(c(=O)c2c1C)N=C(c1ccc([N+](=O)[O-])cc1)CS3	> 100 µM	> 100 µM (inactive)	> 100 µM (inactive)	> 100 µM (inactive)	> 100 µM (inactive)	> 100 µM (inactive)	> 100 µM (inactive)	> 100 µM (inactive)	> 100 µM (inactive)	> 100 µM (inactive)	> 100 µM (inactive)	83.8 µM (inactive)	> 100 µM (inactive)	> 100 µM (inactive)	> 100 µM (inactive)	> 100 µM (inactive)	> 100 µM (inactive)	> 100 µM (inactive)	> 100 µM (inactive)	> 100 µM (inactive)
Cc1ccc(C)c(C(=O)CC2OC(O)C(Cl)C2Cl)c1 (centres undefined)	34.8 µM	> 100 µM (inactive)	> 100 µM (inactive)	> 100 µM (inactive)	> 100 µM (inactive)	> 100 µM (inactive)	5.7 µM (inactive)	> 100 µM (inactive)	30.6 µM (inactive)	> 100 µM (inactive)	> 100 µM (inactive)	52 µM (inactive)	41.1 µM (inactive)	> 100 µM (inactive)	> 100 µM (inactive)	> 100 µM (inactive)	> 100 µM (inactive)	18.9 µM (inactive)	–	26.2 µM (inactive)
O=C(c1ccccc1)c1ccc2n[se]nc2c1	14 µM	34.8 µM (inactive)	7.4 µM (inactive)	8.93 µM (inactive)	56.5 µM (inactive)	> 100 µM (inactive)	54.7 µM (inactive)	11.8 µM (inactive)	–	35.1 µM (inactive)	21.1 µM (inactive)	18.4 µM (inactive)	17.8 µM (inactive)	4.54 µM (inactive)	6.34 µM (inactive)	> 100 µM (inactive)	–	29.4 µM (inactive)	–	40.9 µM (inactive)
Nc1cccc2c1C1=NNC(=O)CC1C2 (centres undefined)	> 100 µM	> 100 µM (inactive)	> 100 µM (inactive)	> 100 µM (inactive)	> 76.6 µM (inactive)	> 100 µM (inactive)	> 100 µM (inactive)	> 100 µM (inactive)	2.51 µM (inactive)	> 100 µM (inactive)	> 100 µM (inactive)	> 100 µM (inactive)	> 100 µM (inactive)	> 100 µM (inactive)	–	> 100 µM (inactive)	> 100 µM (inactive)	> 100 µM (inactive)	> 100 µM (inactive)	> 100 µM (inactive)
N=C(CSS(=O)(=O)O)NC1CC2CCC1C2 (centres undefined)	> 100 µM	> 100 µM (inactive)	76.7 µM (inactive)	–	–	–	> 100 µM (inactive)	> 100 µM (inactive)	> 100 µM (inactive)	> 100 µM (inactive)	> 100 µM (inactive)	> 100 µM (inactive)	> 100 µM (inactive)	> 100 µM (inactive)	–	> 100 µM (inactive)	43.1 µM (inactive)	46 µM (inactive)	> 100 µM (inactive)	> 100 µM (inactive)
CC(=O)OC/C=C/Cn1ncc(=O)[nH]c1=O	> 100 µM	> 100 µM (inactive)	–	> 100 µM (inactive)	> 100 µM (inactive)	> 100 µM (inactive)	> 100 µM (inactive)	> 100 µM (inactive)	> 100 µM (inactive)	–	> 100 µM (inactive)	> 100 µM (inactive)	> 10 µM (inactive)	> 100 µM (inactive)	> 100 µM (inactive)	–	> 100 µM (inactive)	> 100 µM (inactive)	> 100 µM (inactive)	> 100 µM (inactive)
CCOC(=O)CCC(NC(=O)OCc1ccccc1)C(=O)NC(CCC(=O)OCC)C(=O)NNC(=O)OC(C)(C)C (centres undefined)	> 100 µM	–	> 100 µM (inactive)	> 100 µM (inactive)	–	> 100 µM (inactive)	> 100 µM (inactive)	> 100 µM (inactive)	> 100 µM (inactive)	> 100 µM (inactive)	> 100 µM (inactive)	> 100 µM (inactive)	38.5 µM (inactive)	> 100 µM (inactive)	–	–	> 100 µM (inactive)	–	> 100 µM (inactive)	18.7 µM (inactive)
O=C(Nc1ccccc1F)c1c(O)nc2sccn2c1=O	> 10 µM	> 10 µM (inactive)	> 10 µM (inactive)	> 10 µM (inactive)	> 10 µM (inactive)	> 10 µM (inactive)	> 10 µM (inactive)	> 10 µM (inactive)	–	> 10 µM (inactive)	> 10 µM (inactive)	> 10 µM (inactive)	> 10 µM (inactive)	> 10 µM (inactive)	> 10 µM (inactive)	–	> 10 µM (inactive)	> 10 µM (inactive)	> 10 µM (inactive)	> 10 µM (inactive)
